Here are results for 3 compounds from patent US11566057B2, “Long-acting co-agonists of the glucagon and GLP-1 receptors” (Merck Sharp & Dohme Corp., priority 2017, dated 2023).

One experiment has as its target T1, human GCGR (Homo sapiens, UniProt P47871).
T1 construct: expressed in transfected cells; growth medium holds Blasticidin and Hygromycin
Briefly: cAMP activity assay at the Glucagon receptor (GCGR). The class given is cell-based. The conditions noted are these: for hGCGR/hGLP1R (hTone): ratio of GCGR EC50 to GLP1R EC50. The procedure, abridged:
(§1)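 Peptides serially diluted from DMSO (10 points) and added to frozen-stock cells bearing human GLP1R (10,000 cells/well) or GCGR (30,000 cells/well), 1 h at RT, dark. EC50 by four-parameter logistic fit of HitHunter cAMPXS luminescence, read following overnight RT incubation.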

In another experiment the target is T2, human GLP1R (Homo sapiens, UniProt P43220).
T2 construct: expressed in transfected cells; growth medium holds Blasticidin and Hygromycin
Briefly: cAMP activity assay at the GLP-1 receptor (GLP1R). The class given is cell-based. The procedure, abridged: as §1

Where [1] appears, read: summary statement: EC50 at each of the glucagon and GLP-1 receptors, read-out: EC50 at the glucagon receptor.
Setting [2] is: summary statement: EC50 at each of the glucagon and GLP-1 receptors, read-out: EC50 at the GLP-1 receptor.

Read-outs that look alike come from different tables or passages of the source. Numbered stars: 1 amine (or outer) side, 2 acyl side, 3 side chain; on linkers, the order of the positions; unused ones are H or OH. Square brackets hold non-standard residues; d marks the D form. Side chains are listed from the residue outwards. Peptide text beside a SMILES is read from it. * marks the point of attachment. C18 diacid = O=C(O)CCCCCCCCCCCCCCCCC(=O)*; C16 diacid = O=C(O)CCCCCCCCCCCCCCC(=O)*; γGlu = O=C(O)[C@H](CCC(=O)[*:2])N[*:1]; Met(O2) = CS(=O)(=O)CC[C@H](N)C(=O)O; αMeD = C[C@](N)(CC(=O)O)C(=O)O; αMeS = C[C@](N)(CO)C(=O)O; AEEA = NCCOCCOCC(=O)O; Aib = CC(C)(N)C(=O)O

T2 sequence (P43220 24-463): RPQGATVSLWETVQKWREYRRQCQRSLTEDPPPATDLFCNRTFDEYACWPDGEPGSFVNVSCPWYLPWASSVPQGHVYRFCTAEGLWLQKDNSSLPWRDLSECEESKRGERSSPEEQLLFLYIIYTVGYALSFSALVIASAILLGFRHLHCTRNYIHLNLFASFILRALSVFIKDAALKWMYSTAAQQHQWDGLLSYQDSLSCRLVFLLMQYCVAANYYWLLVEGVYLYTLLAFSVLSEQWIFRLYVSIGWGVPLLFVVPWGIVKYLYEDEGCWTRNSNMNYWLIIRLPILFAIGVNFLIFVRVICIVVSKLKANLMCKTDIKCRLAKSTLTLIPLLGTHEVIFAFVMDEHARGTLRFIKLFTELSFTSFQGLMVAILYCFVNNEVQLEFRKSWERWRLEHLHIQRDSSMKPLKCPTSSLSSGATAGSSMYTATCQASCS
T1 sequence (P47871 26-477): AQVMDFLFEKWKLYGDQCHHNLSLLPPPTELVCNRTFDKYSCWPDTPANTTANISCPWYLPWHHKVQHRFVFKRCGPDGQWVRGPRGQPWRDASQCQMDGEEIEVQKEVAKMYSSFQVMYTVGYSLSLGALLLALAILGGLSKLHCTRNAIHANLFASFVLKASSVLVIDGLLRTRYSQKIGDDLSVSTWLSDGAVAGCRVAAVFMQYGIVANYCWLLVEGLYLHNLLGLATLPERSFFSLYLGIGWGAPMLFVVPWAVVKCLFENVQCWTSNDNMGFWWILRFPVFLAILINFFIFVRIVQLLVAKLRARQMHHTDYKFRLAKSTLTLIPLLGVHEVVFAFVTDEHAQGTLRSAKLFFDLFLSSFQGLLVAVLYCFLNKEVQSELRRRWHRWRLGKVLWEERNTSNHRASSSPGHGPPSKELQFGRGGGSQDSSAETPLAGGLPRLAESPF

Take `CC(C)C[C@H](NC(=O)[C@H](Cc1ccc(O)cc1)NC(=O)[C@H](CCCCN)NC(=O)[C@H](CO)NC(=O)[C@H](Cc1ccc(O)cc1)NC(=O)[C@H](CC(=O)O)NC(=O)[C@H](CO)NC(=O)[C@@H](NC(=O)[C@H](Cc1ccccc1)NC(=O)[C@@H](NC(=O)CNC(=O)[C@H](CCC(N)=O)NC(=O)C(C)(C)NC(=O)[C@@H](N)Cc1c[nH]cn1)[C@@H](C)O)[C@@H](C)O)C(=O)N[C@@H](CC(=O)O)C(=O)N[C@@H](C)C(=O)N[C@@H](CCCNC(=N)N)C(=O)N[C@@H](C)C(=O)N[C@@H](C)C(=O)N[C@@H](CCC(N)=O)C(=O)N[C@@H](CCCCNC(=O)COCCOCCNC(=O)COCCOCCNC(=O)CC[C@H](NC(=O)CCCCCCCCCCCCCCC(=O)O)C(=O)O)C(=O)N[C@@H](Cc1ccccc1)C(=O)N[C@H](C(=O)N[C@@H](CCC(N)=O)C(=O)N[C@@H](Cc1c[nH]c2ccccc12)C(=O)N[C@@H](CC(C)C)C(=O)N[C@@H](CCS(C)(=O)=O)C(=O)N[C@@H](CCC(=O)N[C@H](C(N)=O)[C@@H](C)O)C(=O)O)C(C)C` [TP827] (H-H[Aib]QGTFTSDYSKYLDARAAQK([AEEA-AEEA-γGlu-C16 diacid])FVQWL[Met(O2)][γGlu]T-NH2): at human GCGR, the “hGCGR/hGLP1R (hTone)” value was found to be 1.6. Besides, the EC50 on human GCGR (setting [1]) and at human GLP1R (setting [2]) was below 5 nM each time.

With `CC(C)C[C@H](NC(=O)[C@H](Cc1ccc(O)cc1)NC(=O)[C@H](CCCCN)NC(=O)[C@H](CO)NC(=O)[C@H](Cc1ccc(O)cc1)NC(=O)[C@H](CC(=O)O)NC(=O)[C@H](CO)NC(=O)[C@@H](NC(=O)[C@H](Cc1ccccc1)NC(=O)[C@@H](NC(=O)CNC(=O)[C@H](CCC(N)=O)NC(=O)[C@](C)(CO)NC(=O)[C@@H](N)Cc1c[nH]cn1)[C@@H](C)O)[C@@H](C)O)C(=O)N[C@@H](CC(=O)O)C(=O)NC(C)(C)C(=O)N[C@@H](CCCNC(=N)N)C(=O)N[C@@H](C)C(=O)N[C@@H](C)C(=O)N[C@@H](CCC(N)=O)C(=O)N[C@@H](CCCCNC(=O)COCCOCCNC(=O)COCCOCCNC(=O)CC[C@H](NC(=O)CCCCCCCCCCCCCCC(=O)O)C(=O)O)C(=O)N[C@@H](Cc1ccccc1)C(=O)N[C@H](C(=O)N[C@@H](CCC(N)=O)C(=O)N[C@@H](Cc1c[nH]c2ccccc12)C(=O)N[C@@H](CC(C)C)C(=O)N[C@@H](CCS(C)(=O)=O)C(=O)N[C@@](C)(CC(=O)O)C(=O)N[C@H](C(N)=O)[C@@H](C)O)C(C)C` [TP619] (H-H[αMeS]QGTFTSDYSKYLD[Aib]RAAQK([AEEA-AEEA-γGlu-C16 diacid])FVQWL[Met(O2)][αMeD]T-NH2), the “hGCGR/hGLP1R (hTone)” value on human GCGR is recorded as 0.1. In addition, the EC50 was below 5 nM on human GCGR (setting [1]); 0.38 nM on human GLP1R (cells expressing human GLP1R, cAMP production, buffer with or without 20% human serum (not stated which), read-out: GLP1R EC50 human); below 5 nM on human GLP1R (setting [2]).

`CC(C)C[C@H](NC(=O)[C@H](Cc1ccc(O)cc1)NC(=O)[C@H](CCCCN)NC(=O)[C@H](CO)NC(=O)[C@H](Cc1ccc(O)cc1)NC(=O)[C@H](CC(=O)O)NC(=O)[C@H](CO)NC(=O)[C@@H](NC(=O)[C@H](Cc1ccccc1)NC(=O)[C@@H](NC(=O)CNC(=O)[C@H](CCC(N)=O)NC(=O)C(C)(C)NC(=O)[C@@H](N)Cc1c[nH]cn1)[C@@H](C)O)[C@@H](C)O)C(=O)N[C@@H](CC(=O)O)C(=O)N[C@@H](C)C(=O)N[C@@H](CCCNC(=N)N)C(=O)N[C@@H](C)C(=O)N[C@@H](C)C(=O)N[C@@H](CCC(N)=O)C(=O)N[C@@H](CCCCNC(=O)COCCOCCNC(=O)COCCOCCNC(=O)CC[C@H](NC(=O)CCCCCCCCCCCCCCCCC(=O)O)C(=O)O)C(=O)N[C@@H](Cc1ccccc1)C(=O)N[C@H](C(=O)N[C@@H](CCC(N)=O)C(=O)N[C@@H](Cc1c[nH]c2ccccc12)C(=O)N[C@@H](CC(C)C)C(=O)N[C@@H](CCS(C)(=O)=O)C(=O)N[C@@](C)(CC(=O)O)C(=O)N[C@H](C(N)=O)[C@@H](C)O)C(C)C` [TP681] (H-H[Aib]QGTFTSDYSKYLDARAAQK([AEEA-AEEA-γGlu-C18 diacid])FVQWL[Met(O2)][αMeD]T-NH2; N-terminus assumed): the EC50 at human GCGR (cells expressing human GCGR, cAMP production, buffer with or without 20% human serum (not stated which), read-out: GCGR EC50 human) was 0.27 nM; at human GCGR (setting [1]), below 5 nM; on human GLP1R (setting [2]), below 5 nM. For the same compound, the “hGCGR/hGLP1R (hTone)” value at human GCGR is recorded as 1.8.

Broadly, the EC50 is the concentration at which the effect is half-maximal.
